In one data set the test system is SARS-COV-2. Put plainly: microbe, parasite or virus in culture. The format is cell-based. More on the design: SI (Selectivity Index, CC50/IC50): unit not given here. The conditions noted are these: for SI (Selectivity Index, CC50/IC50): SARS-COV-2, values >50 assumed to be 50; for IC50: read-out: SARS-COV-2 inhibition (IC50).
Another data set in a line: in vitro. The following applies: African green monkey.
Where [1] appears, read: Severe acute respiratory syndrome coronavirus 2, Vero cells, 24 hours infection.
[2] abbreviates: Severe acute respiratory syndrome coronavirus 2, Vero, 24 h.

Structures are written as SMILES. Where two headings read alike, the source gives them in different places. A value given as a limit tells only on which side of the number the result lay.

The term IC50 denotes the concentration at which inhibition is half-maximal. As to `COc1cc2cc3c(c(N4CC(C)CC(C)C4)c2cc1OC)C(=O)OC3` (stereo not drawn) [Example 4, 9-(3,5-dimethylpiperidin-1-yl)-6,7-dimethoxynaphtho[2,3-c]furan-1(3H)-one], the “SI (Selectivity Index, CC50/IC50)” value in the data set on SARS-COV-2 is reported as 4.45. The IC50 with SARS-COV-2 (setting [1]) turned out to be 11.2 µM. The same molecule returned a CC50 in “in vitro” of more than 50 µM.
The corresponding values for `COc1cc2cc3c(c(-c4ccc(N5CCCC(C)C5)nc4)c2cc1OC)C(=O)OC3` (stereo not drawn) [Example 126, 6,7-dimethoxy-9-(6-(3-methylpiperidin-1-yl)pyridin-3-yl)naphtho[2,3-c]furan-1(3H)-one] are 122.97, 0.41 µM and more than 50 µM.
The corresponding values for `COc1cc2cc3c(c(-c4cc(C)nc5c(F)cc(F)cc45)c2cc1OC)C(=O)OC3` [Example 139, 9-(6,8-difluoro-2-methylquinolin-4-yl)-6,7-dimethoxynaphtho[2,3-c]furan-1(3H)-one] are 1.0, more than 50 µM and more than 50 µM.
The corresponding values for `CCN(Cc1cccs1)c1ccc(-c2c3c(cc4cc(OC)c(OC)cc24)COC3=O)cn1` [Example 199, 9-(6-(ethyl(thiophen-2-ylmethyl)amino)pyridin-3-yl)-6,7-dimethoxynaphtho[2,3-c]furan-1(3H)-one] are 25.20, 1.98 µM and more than 50 µM.
On to `COc1cc2cc3c(c(-c4cc5c(cc4OC(=O)C(C)(C)C)OCO5)c2cc1OC)C(=O)OC3` [Example 276, 6-(6,7-dimethoxy-3-oxo-1,3-dihydronaphtho[2,3-c]furan-4-yl)benzo[d][1,3]dioxol-5-yl pivalate], for which the “SI (Selectivity Index, CC50/IC50)” value with SARS-COV-2 stood at 1.00. The concentration for half-maximal inhibition (IC50) in the data set with SARS-COV-2 (setting [1]) was more than 50 µM. Also, the CC50 in the data set “in vitro” was more than 50 µM.
For the molecule `CCN(C)c1ccc(-c2c3c(cc4cc(OC)c(OC)cc24)COC3=O)cn1` [Example 178, 9-(6-(ethyl(methyl)amino)pyridin-3-yl)-6,7-dimethoxynaphtho[2,3-c]furan-1(3H)-one], the “SI (Selectivity Index, CC50/IC50)” value in the data set on SARS-COV-2 came out at 1323.43. Moreover, the IC50 with SARS-COV-2 (setting [1]) worked out at 0.04 µM. In “in vitro”, the CC50 is more than 50 µM.
As for `COc1cc2cc3c(c(-c4ccc(N(C)CC5CCCO5)nc4)c2cc1OC)C(=O)OC3` (stereo not drawn) [Example 192, 6,7-dimethoxy-9-(6-(methyl((tetrahydrofuran-2-yl)methyl)amino)pyridin-3-yl)naphtho[2,3-c]furan-1(3H)-one], the “SI (Selectivity Index, CC50/IC50)” value with SARS-COV-2 turned out to be 10.08. Besides, in the data set on SARS-COV-2 (setting [1]), the concentration for half-maximal inhibition (IC50) amounted to 4.96 µM. This molecule also had a CC50 in the data set “in vitro” of more than 50 µM.
For `COc1cc2cccc(-c3c4c(cc5cc(OC)c(OC)cc35)COC4=O)c2cn1` [Example 133, 6,7-dimethoxy-9-(3-methoxyisoquinolin-8-yl)naphtho[2,3-c]furan-1(3H)-one], in that order: 1.0, more than 50 µM and more than 50 µM.
The corresponding values for `COc1cc2cc3c(c(-c4ccc(N(C)Cc5ccccc5C(F)(F)F)nc4)c2cc1OC)C(=O)OC3` [Example 208, 6,7-dimethoxy-9-(6-(methyl(2-(trifluoromethyl)benzyl)amino)pyridin-3-yl)naphtho[2,3-c]furan-1(3H)-one] are 18.96, 2.64 µM and more than 50 µM.
Consider `COc1cc2cc3c(c(-c4cc5c(cc4OP(=O)(NC(C)C)Oc4ccccc4)OCO5)c2cc1OC)C(=O)OC3` (stereo not drawn) [Example 278, 6-(6,7-dimethoxy-3-oxo-1,3-dihydronaphtho[2,3-c]furan-4-yl)benzo[d][1,3]dioxol-5-yl phenyl isopropylphosphoramidate], for which the “SI (Selectivity Index, CC50/IC50)” value in the data set on SARS-COV-2 was 1.00. Moreover, the half-maximal inhibitory concentration (IC50) in the data set on SARS-COV-2 (setting [2]) is more than 50 µM. Further, in the data set “in vitro”, the CC50 is more than 50 µM.
For the molecule `COCCN(C)c1c2c(cc3cc(OC)c(OC)cc13)COC2=O` [Example 5, 6,7-dimethoxy-9-((2-methoxyethyl)(methyl)amino)naphtho[2,3-c]furan-1(3H)-one], the “SI (Selectivity Index, CC50/IC50)” value in the data set with SARS-COV-2 is 1.00. Moreover, in the data set on SARS-COV-2 (setting [1]), the IC50 is more than 50 µM. Moreover, the CC50 in “in vitro” is more than 50 µM.
As for `COc1cc2cc3c(c(-c4ccc(N5CCC6(CC5)OCCO6)nc4)c2cc1OC)C(=O)OC3` [Example 166, 9-(6-(1,4-dioxa-8-azaspiro[4.5]decan-8-yl)pyridin-3-yl)-6,7-dimethoxynaphtho[2,3-c]furan-1(3H)-one], the “SI (Selectivity Index, CC50/IC50)” value in the data set with SARS-COV-2 was 18.50. In addition, in the data set on SARS-COV-2 (setting [1]), the IC50 amounted to 2.7 µM. This molecule came in with a CC50 in “in vitro” of more than 50 µM.
For `CCN(Cc1ccncc1)c1ccc(-c2c3c(cc4cc(OC)c(OC)cc24)COC3=O)cn1` [Example 226, 9-(6-(ethyl(pyridin-4-ylmethyl)amino)pyridin-3-yl)-6,7-dimethoxynaphtho[2,3-c]furan-1(3H)-one], in that order: 7.47, 6.69 µM and more than 50 µM.
The corresponding values for `COc1cc2cc3c(c(-c4cnc(N5CCCC(C(=O)O)C5)nc4)c2cc1OC)C(=O)OC3` (stereo not drawn) [Example 60, 1-(5-(6,7-dimethoxy-3-oxo-1,3-dihydronaphtho[2,3-c]furan-4-yl)pyrimidin-2-yl) piperidin-3-carboxylic acid] are 1.00, more than 50 µM and more than 50 µM.
For the molecule `COc1cc2cc3c(c(-c4cccc(N5CCCC5)c4)c2cc1OC)C(=O)OC3.Cl` [Example 252, 6,7-dimethoxy-9-(3-(pyrrolidin-1-yl)phenyl)naphtho[2,3-c]furan-1(3H)-one], the “SI (Selectivity Index, CC50/IC50)” value with SARS-COV-2 came out at 1. The IC50 in the data set with SARS-COV-2 (setting [2]) was more than 50 µM. The molecule also showed a CC50 in “in vitro” of more than 50 µM.
Turning to `COc1cc2cc3c(c(-c4ccc(N(C)c5nc6ccccc6s5)nc4)c2cc1OC)C(=O)OC3.Cl` [Example 225, 9-(6-(benzo[d]thiazol-2-yl(methyl)amino)pyridin-3-yl)-6,7-dimethoxynaphtho[2,3-c]furan-1(3H)-one], the “SI (Selectivity Index, CC50/IC50)” value in the data set with SARS-COV-2 is on record as 0.65. In addition, the IC50 in the data set on SARS-COV-2 (setting [2]) was more than 50 µM. The molecule also registered a CC50 in the data set “in vitro” of 32.4 µM.
As to `COc1cc2cc3c(c(-c4ccc(N5CCC(C)CC5)nc4)c2cc1OC)C(=O)OC3` [Example 159, 6,7-dimethoxy-9-(6-(4-methylpiperidin-1-yl)pyridin-3-yl)naphtho[2,3-c]furan-1(3H)-one], in the data set with SARS-COV-2, the “SI (Selectivity Index, CC50/IC50)” value stood at 32.86. In the data set on SARS-COV-2 (setting [1]), the IC50 came out at 1.52 µM. This molecule also displayed a CC50 in “in vitro” of more than 50 µM.
As to `CCC(C)N(C)c1ncc(-c2c3c(cc4cc(OC)c(OC)cc24)COC3=O)cn1.Cl` (stereo not drawn) [Example 100, 9-(2-(sec-butyl(methyl)amino)pyrimidin-5-yl)-6,7-dimethoxynaphtho[2,3-c]furan-1(3H)-one hydrochloride], the “SI (Selectivity Index, CC50/IC50)” value in the data set with SARS-COV-2 stood at 96.21. For the same molecule, in the data set with SARS-COV-2 (setting [2]), the half-maximal inhibitory concentration (IC50) came to 0.52 µM. This molecule also returned a CC50 in the data set “in vitro” of more than 50 µM.
On to `COc1cc2cc3c(c(-c4ccc(N5CCC(O)CC5)nc4)c2cc1OC)C(=O)OC3` [Example 165, 9-(6-(4-hydroxypiperidin-1-yl)pyridin-3-yl)-6,7-dimethoxynaphtho[2,3-c]furan-1(3H)-one], for which the “SI (Selectivity Index, CC50/IC50)” value in the data set on SARS-COV-2 was 11.69. In the data set on SARS-COV-2 (setting [1]), the IC50 was determined as 2.91 µM. In “in vitro”, the CC50 was 34 µM.
Take `COc1cc2cc3c(c(-c4ccc(N(C)C)c([N+](=O)[O-])c4)c2cc1OC)C(=O)OC3.Cl` [Example 217, 9-(4-(dimethylamino)-3-nitrophenyl)-6,7-dimethoxynaphtho[2,3-c]furan-1(3H)-one]: in the data set on SARS-COV-2, the “SI (Selectivity Index, CC50/IC50)” value is reported as 10.06. In addition, the IC50 in the data set with SARS-COV-2 (setting [2]) was determined as 4.97 µM. The same molecule came in with a CC50 in “in vitro” of more than 50 µM.
For the molecule `COc1cc2cc3c(c(-c4cccc5ncccc45)c2cc1OC)C(=O)OC3` [Example 132, 6,7-dimethoxy-9-(quinolin-5-yl)naphtho[2,3-c]furan-1(3H)-one], in the data set with SARS-COV-2, the “SI (Selectivity Index, CC50/IC50)” value is recorded as 1.0. The concentration for half-maximal inhibition (IC50) in the data set with SARS-COV-2 (setting [1]) is more than 50 µM. The CC50 in “in vitro” was more than 50 µM.
As to `CNc1ccc(-c2c3c(cc4cc(OC)c(OC)cc24)COC3=O)cn1` [Example 229, 6,7-dimethoxy-9-(6-(methylamino)pyridin-3-yl)naphtho[2,3-c]furan-1(3H)-one], the “SI (Selectivity Index, CC50/IC50)” value in the data set with SARS-COV-2 was 17.63. The IC50 in the data set on SARS-COV-2 (setting [1]) came out at 2.84 µM. Besides, in the data set “in vitro”, the CC50 is more than 50 µM.
The corresponding values for `COc1cc2cc3c(c(-c4ccc5c(c4)CN(C)CC5)c2cc1OC)C(=O)OC3` [Example 190, 6,7-dimethoxy-9-(2-methyl-1,2,3,4-tetrahydroisoquinolin-7-yl)naphtho[2,3-c]furan-1(3H)-one] are 1.73, 29 µM and more than 50 µM.
`CCOP(=O)(OCC)Oc1cc2c(cc1-c1c3c(cc4cc(OC)c(OC)cc14)COC3=O)OCO2` [Example 277, 6-(6,7-dimethoxy-3-oxo-1,3-dihydronaphtho[2,3-c]furan-4-yl)benzo[d][1,3]dioxol-5-yl diethyl phosphate]: the “SI (Selectivity Index, CC50/IC50)” value in the data set on SARS-COV-2 came to 1.00. In addition, the IC50 in the data set with SARS-COV-2 (setting [2]) was more than 50 µM. In addition, in the data set “in vitro”, the CC50 was more than 50 µM.
As for `COc1cc2cc3c(c(-c4cnc(Oc5cccc6ccccc56)nc4)c2cc1OC)C(=O)OC3` [Example 21, 6,7-dimethoxy-9-(2-(naphthalen-1-yloxy)pyrimidin-5-yl)naphtho[2,3-c]furan-1(3H)-one], in the data set on SARS-COV-2, the “SI (Selectivity Index, CC50/IC50)” value is listed as 1.00. Besides, in the data set on SARS-COV-2 (setting [1]), the IC50 was more than 50 µM. In addition, in “in vitro”, the CC50 was more than 50 µM.
In the case of `COc1cc2cc3c(c(-c4ccc(N5C(=O)OC[C@@H]5Cc5ccccc5)nc4)c2cc1OC)C(=O)OC3` [Example 211, (S)-4-benzyl-3-(5-(6,7-dimethoxy-3-oxo-1,3-dihydronaphtho[2,3-c]furan-4-yl)pyridin-2-yl) oxazolidin-2-one], the “SI (Selectivity Index, CC50/IC50)” value with SARS-COV-2 came to 12.50. For the same molecule, in the data set on SARS-COV-2 (setting [1]), the IC50 is 4 µM. Moreover, in “in vitro”, the CC50 was more than 50 µM.
As for `COc1cc2cc3c(c(-c4ccc(N(C)C(=O)c5ccc(Cl)nc5)nc4)c2cc1OC)C(=O)OC3.Cl` [Example 234, 6-chloro-N-(5-(6,7-dimethoxy-3-oxo-1,3-dihydronaphtho[2,3-c]furan-4-yl)pyridin-2-yl)-N-methylnicotinamide], the “SI (Selectivity Index, CC50/IC50)” value with SARS-COV-2 is given as 1.00. In addition, the concentration for half-maximal inhibition (IC50) in the data set on SARS-COV-2 (setting [2]) is more than 50 µM. The same molecule showed a CC50 in the data set “in vitro” of more than 50 µM.

These data come from patent US20240368104A1, “Novel Dialkoxynaphtho[2,3-C]Furan-1(3H)-One Derivatives and Pharmaceutical Composition For Preventing or Treating Respiratory Disease or SARS-COV-2 Infection Disease, Comprising Same” (priority 2021, published 2024).
